According to patent US10143748B2, “B-cell reduction using CD37-specific and CD20-specific binding molecules” (Emergent Product Development Seattle, LLC, priority 2005, dated 2018):
Entries after “also recorded” stand apart in the source; their conditions may differ.

Columns and labels:
Ramos B cells = test: CDC assay, Ramos B cells with human serum complement, propidium iodide; format: cell-based; details: Ramos B cells, human serum
Protocol: (§1) The cells were incubated 60 minutes at 37° C. […] Samples were incubated 15 minutes at room temperature in the dark prior to analysis by flow cytometry using a FACsCalibur and CellQuest software (Becton Dickinson).
as §1

Ramos cells = test: Annexin V/PI apoptosis analysis, Ramos; format: cell-based, human; details: 24 hours, TRU-016 10 μg/mL (unfractionated)
Protocol: Experiments examining the effect of B cell targeted SMIPS on B cell line apoptosis were performed. Each SMIP was tested individually and then in combination. Samples were analyzed at both 24 and 48 hours after initiation of incubation reactions. […] In addition, 20 μg/mL goat anti-human IgG was added to reactions in order to cross link reagents on the cell surface. Cells were then stained with Annexin V-FITC and propidium iodide using the BD Pharmigen Apoptosis Detection Kit I (#556547), and processed according to kit instructions. Briefly, cells were washed twice with cold PBS and resuspended in “binding buffer” at 1×10^6 cells/mL. One hundred microliters of the cells in binding buffer were then stained with 5 μl of Annexin V-FITC and 5 μl of propidium iodide. The cells were gently vortexed and incubated in the dark at room temperature for 15 minutes. Four hundred microliters of binding buffer was then added to each sample. They were then read and analyzed on a FACsCalibur (Becton Dickinson) instrument using Cell Quest software (Becton Dickinson).
Similar data were obtained whether Ramos or BJAB cells were used as the binding targets in these assays.

[1] = biological target: T1, CD37 cell surface receptor (Homo sapiens, UniProt P11049); test: TRU-016 binding to human PBMC, two-color flow cytometry
T1 construct: Human PBMCs were isolated over LSM density gradients and incubated with unconjugated TRU-016; endogenous in cells; host or cells: human PBMC (CD19-positive B lymphocyte gate)
T1 sequence (P11049 1-281): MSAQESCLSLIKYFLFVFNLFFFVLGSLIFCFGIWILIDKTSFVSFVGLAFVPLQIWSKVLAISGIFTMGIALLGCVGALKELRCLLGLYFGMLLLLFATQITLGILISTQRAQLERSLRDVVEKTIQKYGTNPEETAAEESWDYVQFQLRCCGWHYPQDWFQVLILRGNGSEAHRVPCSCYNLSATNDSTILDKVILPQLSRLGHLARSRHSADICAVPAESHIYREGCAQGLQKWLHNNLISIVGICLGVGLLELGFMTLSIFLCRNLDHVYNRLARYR
Protocol: Experiments were also performed to determine that the binding specificity of the parent antibody to the CD37 cell surface receptor is preserved in TRU-016. Human PBMCs were isolated over LSM density gradients and incubated with unconjugated TRU-016 and PE-conjugated anti-human CD19. Cells were washed and incubated with 1:100 FITC GAH IgG (Fc specific) for 45 minutes on ice. Cells were washed and analyzed by two-color flow cytometry on a FACsCalibur instrument using Cell Quest software. Cells were gated for B lymphocytes or non-B lymphocytes by CD19 staining.
With increasing concentrations of TRU-016, the FITC signal on the B lymphocyte (CD19 positive gate) increased rapidly from 0.01-1.0 μg/ml, until it reached saturation at approximately 1 μg/mL or a mean fluorescence intensity (MFI) of 1000. […] Thus, the staining pattern of the G28-1 murine monoclonal antibody is preserved with TRU-016 (FIG. 1C).

Daudi tumors = test: Daudi tumor xenograft in nude mice; format: in vivo, mouse
Protocol: Ramos and Daudi tumor cells were separately grown and (5×10^6) cells were injected subcutaneously in the right flank of mice to initiate the formation of mouse tumor xenografts. After tumor development, mice were sorted into groups based on tumor size/volume (day 0). […] Tumor volume was blindly measured three times weekly with calipers until completion of the experiment (sacrifice or regression).

[2] = system: Rituximab-resistant cells (Raji 4RH and RL 4RH); test: direct cytotoxicity in rituximab-resistant cells, annexin/PI; format: cell-based; details: TRU-016 5 μg/mL, rituximab 10 μg/mL, five-fold excess goat anti-human IgG, 24 hours
Protocol: Direct cytoxicity was measured by annexin/PI staining and cell viability (percent) was calculated relative to control cells (cells treated with herceptin).

[3] = established Daudi tumors, 100 μg

G28-1 scFv VH11S(SSC—P)H WCH2 WCH3 [TRU-016]
CDC activity with human complement, single reagent (Ramos B cells): fails to mediate CDC unless aggregates are present | % of annexin V positive-PI negative cells (Ramos cells; 8.5% before): 19.7% | % of annexin V-PI double positive cells (Ramos cells; 11.3% before): 32.8% | mean fluorescence intensity (MFI) at saturation ([1]; B lymphocyte (CD19 positive gate)): 1000 | staining of / binding to the non-B lymphocyte population ([1]; CD19 negative gate): much lower level of binding; also recorded: detectable, but very low | binding to human peripheral blood B lymphocytes ([1]; flow cytometry, FIG. 1C): high level, specific binding | concentration at which FITC signal on B lymphocytes (CD19 positive gate) reached saturation ([1]; human PBMC, FITC GAH IgG detection): approximately 1 μg/mL | survival time (Daudi tumors; Daudi tumor xenograft, FIGS. 25 and 26): more effective than rituximab in maintaining survival; also recorded: significantly enhanced survival time compared to the control group; also recorded: statistically significant increase in median survival time | Median Survival Time (Daudi tumors; [3]): 24 days | Percentage of Tumor Free Mice at Day 90 (Daudi tumors; [3]): 25% | cell toxicity (cell viability relative to herceptin-treated cells) [2]: greater cell toxicity than rituximab
